This note sets out measurements from ChEMBL document CHEMBL5518204, “Discovery and Proof of Concept of Potent Dual Polθ/PARP Inhibitors for Efficient Treatment of Homologous Recombination-Deficient Tumors” (J Med Chem, 2024).

Activity calls are given as the source filed them. No cut-off for these calls is given here. Bounds are passed on as bounds.

In one series the target is DNA polymerase theta (Homo sapiens, UniProt O75417). In words: Inhibition of DNA polymerase theta (unknown origin) ATPase activity incubated for 60 mins in presence of ATP by ADP-glo kinase assay.
DNA polymerase theta, sequence (O75417 whole entry): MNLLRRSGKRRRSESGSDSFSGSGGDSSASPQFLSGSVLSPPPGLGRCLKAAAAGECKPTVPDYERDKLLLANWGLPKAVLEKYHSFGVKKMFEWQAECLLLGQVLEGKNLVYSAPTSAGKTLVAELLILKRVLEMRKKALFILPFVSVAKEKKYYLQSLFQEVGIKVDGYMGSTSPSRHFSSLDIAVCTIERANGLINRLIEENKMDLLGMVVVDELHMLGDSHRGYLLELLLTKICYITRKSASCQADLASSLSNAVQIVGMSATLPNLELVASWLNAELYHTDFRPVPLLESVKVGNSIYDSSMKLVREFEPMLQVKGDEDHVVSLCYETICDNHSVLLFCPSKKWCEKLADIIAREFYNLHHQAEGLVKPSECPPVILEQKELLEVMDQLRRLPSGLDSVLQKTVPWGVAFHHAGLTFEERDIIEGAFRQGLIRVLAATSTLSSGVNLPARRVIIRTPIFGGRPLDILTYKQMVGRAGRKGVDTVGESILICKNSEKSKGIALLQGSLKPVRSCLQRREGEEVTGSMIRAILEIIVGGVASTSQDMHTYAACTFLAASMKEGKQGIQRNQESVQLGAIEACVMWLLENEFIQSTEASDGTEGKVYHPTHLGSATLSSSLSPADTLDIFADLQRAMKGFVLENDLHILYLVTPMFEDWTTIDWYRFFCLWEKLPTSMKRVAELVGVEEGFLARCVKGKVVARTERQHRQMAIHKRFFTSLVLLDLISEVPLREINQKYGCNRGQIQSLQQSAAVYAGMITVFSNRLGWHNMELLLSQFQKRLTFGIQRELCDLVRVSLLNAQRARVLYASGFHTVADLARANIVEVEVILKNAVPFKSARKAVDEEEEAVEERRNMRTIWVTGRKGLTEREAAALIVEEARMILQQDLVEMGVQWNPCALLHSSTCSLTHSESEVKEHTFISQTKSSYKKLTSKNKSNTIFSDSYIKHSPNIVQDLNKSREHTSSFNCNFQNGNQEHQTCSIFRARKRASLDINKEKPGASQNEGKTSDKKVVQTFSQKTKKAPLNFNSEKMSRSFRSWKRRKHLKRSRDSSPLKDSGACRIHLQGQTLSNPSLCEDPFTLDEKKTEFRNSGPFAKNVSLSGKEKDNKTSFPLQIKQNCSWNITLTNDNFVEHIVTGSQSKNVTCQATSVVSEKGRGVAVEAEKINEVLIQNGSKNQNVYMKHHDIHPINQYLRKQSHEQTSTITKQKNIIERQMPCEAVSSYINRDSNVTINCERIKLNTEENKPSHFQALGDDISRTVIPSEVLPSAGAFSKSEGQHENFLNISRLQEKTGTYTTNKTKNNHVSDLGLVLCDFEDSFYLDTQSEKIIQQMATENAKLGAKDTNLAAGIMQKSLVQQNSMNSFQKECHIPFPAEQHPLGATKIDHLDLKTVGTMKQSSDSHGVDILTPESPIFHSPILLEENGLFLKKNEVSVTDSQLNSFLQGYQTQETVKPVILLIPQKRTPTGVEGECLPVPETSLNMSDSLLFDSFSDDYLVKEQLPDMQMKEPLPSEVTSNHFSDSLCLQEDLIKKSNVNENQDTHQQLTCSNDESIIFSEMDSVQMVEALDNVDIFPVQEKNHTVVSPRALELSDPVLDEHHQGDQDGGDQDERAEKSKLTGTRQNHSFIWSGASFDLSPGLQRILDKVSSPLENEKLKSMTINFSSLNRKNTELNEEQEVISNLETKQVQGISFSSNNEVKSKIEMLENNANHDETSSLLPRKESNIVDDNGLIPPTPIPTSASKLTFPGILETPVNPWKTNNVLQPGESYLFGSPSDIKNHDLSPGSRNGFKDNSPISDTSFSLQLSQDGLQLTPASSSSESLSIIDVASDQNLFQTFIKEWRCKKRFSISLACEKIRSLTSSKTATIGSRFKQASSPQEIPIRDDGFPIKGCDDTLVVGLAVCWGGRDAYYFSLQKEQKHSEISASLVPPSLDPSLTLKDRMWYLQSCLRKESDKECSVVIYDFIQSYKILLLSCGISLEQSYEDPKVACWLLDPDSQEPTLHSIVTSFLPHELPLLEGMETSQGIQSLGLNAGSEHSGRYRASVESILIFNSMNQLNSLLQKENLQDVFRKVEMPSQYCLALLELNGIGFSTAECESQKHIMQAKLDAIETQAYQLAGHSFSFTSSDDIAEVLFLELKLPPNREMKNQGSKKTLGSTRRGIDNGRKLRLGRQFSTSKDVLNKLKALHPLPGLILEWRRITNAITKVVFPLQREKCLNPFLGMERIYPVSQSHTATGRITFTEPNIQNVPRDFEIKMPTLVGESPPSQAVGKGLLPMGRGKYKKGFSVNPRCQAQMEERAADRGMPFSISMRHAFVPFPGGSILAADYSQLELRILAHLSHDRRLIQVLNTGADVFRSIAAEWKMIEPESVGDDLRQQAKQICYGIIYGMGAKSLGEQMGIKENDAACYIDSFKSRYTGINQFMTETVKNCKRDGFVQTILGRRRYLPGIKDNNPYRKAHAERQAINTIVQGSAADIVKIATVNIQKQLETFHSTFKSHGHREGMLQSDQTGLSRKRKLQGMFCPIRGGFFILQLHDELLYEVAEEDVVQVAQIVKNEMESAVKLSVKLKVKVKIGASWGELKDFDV
In series [1] the target is Poly [ADP-ribose] polymerase 1 (Homo sapiens, UniProt P09874). The conditions noted are these: dose 10.0 nM, time 90.0 min.
Poly [ADP-ribose] polymerase 1, sequence (P09874 whole entry): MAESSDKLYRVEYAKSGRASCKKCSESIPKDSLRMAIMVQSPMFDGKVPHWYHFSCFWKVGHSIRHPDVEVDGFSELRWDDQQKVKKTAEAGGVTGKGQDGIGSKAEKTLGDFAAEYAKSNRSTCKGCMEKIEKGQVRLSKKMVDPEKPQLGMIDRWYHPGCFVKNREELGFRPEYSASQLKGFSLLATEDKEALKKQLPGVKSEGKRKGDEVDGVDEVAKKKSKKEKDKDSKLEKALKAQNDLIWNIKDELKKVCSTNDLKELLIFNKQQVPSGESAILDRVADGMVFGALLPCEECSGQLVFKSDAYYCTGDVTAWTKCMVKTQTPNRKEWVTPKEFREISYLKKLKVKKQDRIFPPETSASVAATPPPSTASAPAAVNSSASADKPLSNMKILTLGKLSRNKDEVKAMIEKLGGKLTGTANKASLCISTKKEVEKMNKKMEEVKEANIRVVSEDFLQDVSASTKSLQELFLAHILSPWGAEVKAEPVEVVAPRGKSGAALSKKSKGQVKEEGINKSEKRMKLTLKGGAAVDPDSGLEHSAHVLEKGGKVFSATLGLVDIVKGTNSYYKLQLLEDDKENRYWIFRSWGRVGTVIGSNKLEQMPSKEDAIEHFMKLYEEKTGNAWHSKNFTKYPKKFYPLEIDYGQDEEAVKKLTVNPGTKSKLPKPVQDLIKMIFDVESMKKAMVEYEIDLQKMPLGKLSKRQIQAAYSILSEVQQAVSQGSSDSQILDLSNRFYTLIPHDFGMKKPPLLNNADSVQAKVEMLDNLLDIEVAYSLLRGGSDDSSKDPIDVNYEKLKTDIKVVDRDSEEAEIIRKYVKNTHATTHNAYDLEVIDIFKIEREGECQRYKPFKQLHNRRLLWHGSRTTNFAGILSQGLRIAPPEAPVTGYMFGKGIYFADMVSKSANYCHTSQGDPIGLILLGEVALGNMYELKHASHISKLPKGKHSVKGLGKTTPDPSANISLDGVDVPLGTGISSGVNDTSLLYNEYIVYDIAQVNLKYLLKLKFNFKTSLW
The next series concerns HCC1937. In words: Antiproliferative activity against BRCA1-deficient human HCC1937 cells assessed as inhibition of cell proliferation incubated for 5 days by MTT assay. Type of series: functional, cell-based. The note with it: HCC1937, 120 h.
Series [2] concerns MDA-MB-436. As to the kind of experiment: Antiproliferative activity against BRCA1-deficient human MDA-MB-436 cells assessed as inhibition of cell proliferation incubated for 5 days by MTT assay. Type of series: functional, cell-based. The note with it: MDA-MB-436, 120 h.
The test system of the next series is SK-OV-3. As to the kind of experiment: Antiproliferative activity against BRCA-proficient human SK-OV-3 cells assessed as inhibition of cell proliferation incubated for 5 days by MTT assay. In kind it is functional, cell-based. The note with it: SK-OV-3, 120 h.
Another series relates to MCF-10A. As to the kind of experiment: (§1) Antiproliferative activity against human MCF-10A cells assessed as inhibition of cell proliferation incubated for 5 days by MTT assay. Type of series: toxicity, cell-based. The note with it: mcf-10a.
In another series the test system is HCT-116. In words: Antiproliferative activity against BRCA2-deficient human HCT-116 cells assessed as inhibition of cell proliferation incubated for 5 days by MTT assay. In kind it is functional, cell-based. The conditions noted are these: HCT-116, 120 h.
Series [3] has as its system MDA-MB-231. In words: Induction of DNA damage in human MDA-MB-231 cells assessed as increase in gammaH2AX foci at 2 to 10 uM incubated for 3 days in presence of novobiocin by DAPI staining based confocal laser scanning microscopic analysis. Type of series: functional, cell-based. The note with it: dose 2-10 µM, time 3.0 day.
The subject of series [4] is MDA-MB-231. As to the kind of experiment: Induction of DNA damage in human MDA-MB-231 cells assessed as increase in gammaH2AX foci at 2 uM incubated for 3 days by DAPI staining based confocal laser scanning microscopic analysis. In kind it is functional, cell-based. The conditions noted are these: time 3.0 day.
For a further series, the system named is SW48. As to the kind of experiment: Antiproliferative activity against BRCA2-deficient human SW48 cells assessed as inhibition of cell proliferation incubated for 5 days by MTT assay. In kind it is functional, cell-based. The note with it: SW48, 120 h.
Series [5] deals with MDA-MB-231. As to the kind of experiment: Induction of DNA damage in human MDA-MB-231 cells assessed as increase in tail intensity at 2 uM incubated for 3 days by florescence microscopic analysis. In kind it is functional, cell-based. The note with it: time 3.0 day.
A short description of series [6]: as §1. Type of series: toxicity, cell-based. The note with it: human, MCF-10A cells.
For series [7], the system named is MDA-MB-231. In words: Induction of cell cycle arrest in human MDA-MB-231 cells assessed as accumulation of cells at G2/M phase at 10 uM incubated for 3 days in presence of novobiocin by PI staining based flow cytometric analysis. Type of series: functional. The conditions noted are these: time 3.0 day.
The subject of series [8] is MDA-MB-436. As to the kind of experiment: Inhibition of colony formation in human MDA-MB-436 cells at 2 uM incubated for 9 days by crystal violet staining based analysis. In kind it is functional, cell-based. The note with it: time 9.0 day.
Series [9] relates to MDA-MB-231. As to the kind of experiment: Induction of apoptosis in human MDA-MB-231 cells at 2 to 10 uM incubated for 3 days in presence of novobiocin by Annexin V-APC/7-AAD based flow cytometry analysis. Type of series: functional. The conditions noted are these: dose 2-10 µM, time 3 day.
The test system of series [10] is MDA-MB-231. As to the kind of experiment: Induction of cell cycle arrest in human MDA-MB-231 cells assessed as accumulation of cells at G2/M phase at 2 uM incubated for 3 days by PI staining based flow cytometric analysis. In kind it is functional. The note with it: time 3.0 day.
In series [11] the test system is MDA-MB-436. In words: Inhibition of colony formation in human MDA-MB-436 cells at 2 to 10 uM incubated for 9 days in presence of novobiocin by crystal violet staining based analysis. The conditions noted are these: dose 2-10 µM, time 9.0 day. Type of series: functional, cell-based.
Series [12] has as its system MDA-MB-231. As to the kind of experiment: Antiproliferative activity against 53BP1-knockdown human MDA-MB-231 cells incubated for 24 hrs by MTT assay. Type of series: functional, cell-based.
Series [13] concerns MDA-MB-231. In words: Induction of apoptosis in human MDA-MB-231 cells at 2 uM incubated for 3 days by Annexin V-APC/7-AAD based flow cytometry analysis. In kind it is functional. The note with it: time 3 day.
Series [14] relates to MDA-MB-231. As to the kind of experiment: Induction of DNA damage in human MDA-MB-231 cells assessed as increase in tail intensity at 2 to 10 uM incubated for 3 days in presence of novobiocin by florescence microscopic analysis. In kind it is functional, cell-based. The conditions noted are these: dose 2-10 µM, time 3.0 day.

On to `COc1ccccc1-c1cnccc1C(=O)Nc1nnc(N2CC3(CCN(C(=O)c4cc(Cc5n[nH]c(=O)c6ccccc56)ccc4F)CC3)C2)s1`, for which, at DNA polymerase theta, the IC50 is greater than 1 µM. The compound also had an inhibition in series [1] of 82.8%.
In [1], `COc1ccccc1-c1cnccc1C(=O)Nc1nnc(OCc2cc(Cc3n[nH]c(=O)c4ccccc34)ccc2F)s1` showed an inhibition of 30.3%.
On to `COc1cccc(F)c1-c1cc(C)ncc1C(=O)Nc1nnc(OC2CC3(CCN(C(=O)c4cc(Cc5n[nH]c(=O)c6ccccc56)ccc4F)CC3)C2)s1`, for which the half-inhibitory concentration (IC50) in the series with HCC1937 was 65.6 µM; in the series on MDA-MB-436 [2] it was 5.5 µM; in the series with SK-OV-3, greater than 80 µM; in the series on MCF-10A, “Non-Toxic”; on DNA polymerase theta, 0.0793 µM; in the series on HCT-116 it was 7.2 µM. In series [1], this compound returned an inhibition of 72.8%.
In the case of `O=C(Nc1nnc(OCc2ccc(Cl)cc2)s1)c1cc(Cc2n[nH]c(=O)c3ccccc23)ccc1F`, the IC50 on DNA polymerase theta is greater than 1 µM.
Consider `COc1ccccc1-c1cnccc1C(=O)Nc1nnc(N2CCN(C(=O)c3cc(Cc4n[nH]c(=O)c5ccccc45)ccc3F)CC2)s1`, for which, at DNA polymerase theta, the 50% inhibitory concentration (IC50) is greater than 1 µM. Besides, the inhibition in [1] came out at 91.4%.
For `O=C(c1cc(Cc2n[nH]c(=O)c3ccccc23)ccc1F)N1CCN(C(=O)C2CC2)CC1` [OLAPARIB], the half-maximal inhibitory concentration (IC50) stood at 38.2 µM in the series with HCC1937, 4.6 µM with SW48, 13.3 µM with MDA-MB-436 [2] and 27.1 µM in the series on SK-OV-3. Moreover, the outcome in the series with MDA-MB-231 [3], in the series with MDA-MB-231 [4], in the series with MDA-MB-231 [5], in the series on MDA-MB-231 [7], in the series on MDA-MB-231 [10] and with MDA-MB-231 [14] was Active. Besides, the concentration for half-maximal inhibition (IC50) at 5 days in series [6] was greater than 80 µM. In addition, the inhibition result with MDA-MB-436 [8] and with MDA-MB-436 [11] was “Active” each time. Moreover, the Activity in the series with MDA-MB-231 [9] was 14.2%; with MDA-MB-231 [13] it was 8.9%. The result in the series on MDA-MB-231 [12] was inactive.
Take `COc1ccccc1-c1cnccc1C(=O)Nc1nnc(OCC2CN(C(=O)c3cc(Cc4n[nH]c(=O)c5ccccc45)ccc3F)C2)s1`: the IC50 at DNA polymerase theta is greater than 1 µM. This compound also displayed an inhibition in series [1] of 36.9%.
On to `COc1ccc(Cl)cc1-c1cc(C)ncc1C(=O)Nc1nnc(OC2CC3(CCN(C(=O)c4cc(Cc5n[nH]c(=O)c6ccccc56)ccc4F)CC3)C2)s1`, for which the IC50 in the series with HCC1937 is 89.4 µM; in the series with MDA-MB-436 [2], 10.5 µM; with SK-OV-3, greater than 80 µM; with MCF-10A, “Non-Toxic”; on DNA polymerase theta, 0.0598 µM; with HCT-116 it was 6.2 µM. This compound also had an inhibition in series [1] of 66.9%.
